The text below walks through data of patent US9266815B2, “Anti-metastatic agents predicated upon polyamine macrocyclic conjugates” (University of Central Florida Research Foundation, Inc., priority 2012, dated 2016).

For data set [1], the system named is human pancreatic cancer L3.6p1 cells. Put plainly: Orthotopic mouse model, liver micrometastases. Type of data set: in vivo. How it is done:
In one embodiment, the cancer is breast cancer. In another embodiment, the cancer is pancreatic cancer. […] The control was saline solution. The respective drugs (44a and 45) were dosed at their respective maximum tolerated dose (MTD).

For data set [2], the system named is pancreatic tumor (L3.6p1 cells). Put plainly: Mouse pancreatic tumor model, tumor size. Type of data set: in vivo. Conditions: for tumor volume size: versus untreated control, preliminary data not shown. An excerpt: Further, the present inventors have found a dramatic increase in the therapeutic window available to these new agents relative to the parent compound 44a. These large carbocycles (e.g., the macrocyclic core) and carbocycle-alkyl groups (e.g., cyclopentadecyl-CH2— is preferred) represent a new N-substituent which imparts the unique properties of anti-migration activity and lower toxicity. Advantageously, the compounds described herein may be administered alone or in combination with known and/or new therapies (e.g., other chemotherapeutic agents or radiation) to help treat or prevent the spread of primary tumors and allow time for the intervention (e.g., other chemotherapeutic) to work on the primary tumor.
Thus, this represents an exciting unexpected discovery that not only can compounds of the present invention reduce metastasis, they reduce the tumor itself.

In another data set the test system is CHO-MG* cells. Put plainly: Cytotoxicity (MTS cell growth) in CHO-MG* cells. Type of data set: cell-based, Chinese hamster. Conditions: for pIC50: 48 h at 37° C., 1 mM AG 24 h prior to drug addition, triplicate. An excerpt:
(§1) CHO cells were chosen along with a mutant cell line (CHO-MG*) to comment on how the synthetic conjugates gain access to the cells.^2c-e, 6 As discussed earlier, the CHO-MG* cell line is polyamine-transport deficient and represents a model for alternative modes of entry (other than PTS) including passive diffusion or use of another transporter. The CHO cell line on the other hand, represents cells with high polyamine transport activity.^7b, 10c A comparison of toxicity in these two CHO cell lines allowed for a screen that would detect selective use of the polyamine transporter. High utilization of the PTS would be very toxic to CHO cells. However, the CHO-MG* cells should be less sensitive to drugs which target the PTS.^2c-e, 6 Ultimately, a CHO-MG*/CHO IC50 ratio was determined to assess PTS selectivity. A high IC50 ratio (>>2) would be observed for PTS selective compounds.
(§2) CHO and CHO-MG* cells were grown in RPMI 1640 medium supplemented with 10% fetal calf serum and 1% penicillin/streptomycin. Note: the media must contain L-proline (2 μg/mL) for proper growth of the CHO-MG* cells. L3.6p1 cells were grown in RPMI 1640 medium supplemented with 10% FBS and 1% penicillin/streptomycin. All cells were grown at 37° C. under a humidified 5% CO2 atmosphere Aminoguanidine (1 mM for CHO and CHO-MG*, and 250 μM for L3.6p1) was added to the growth medium to prevent oxidation of the drugs by the enzyme (bovine serum amine oxidase) present in calf serum. Cells in early to mid-log phase growth were used.
(§3) Cell growth was assayed in sterile 96-well microtiter plates (Costar 3599, Corning, N.Y., USA). CHO and CHO-MG* cells were plated at 10,000 cells/mL. L3.6p1 cells were plated at 5,000 cells/mL. Drug solutions (10 μL per well) of appropriate concentration were added after an overnight incubation for each CHO cell line (90 μL of cell suspension). After exposure to the drug for 48 h, cell growth was determined by measuring formazan formation from 3-(4,5-dimethylthiazol-2-yl)-5-(3-carboxymethoxyphenyl)-2-(4-sulphenyl)-2H-tetrazolium, inner salt (MTS) using a SynergyMx BioTek microplate reader for absorbance ([…]) measurements.^23 A 4 h incubation period was used for the MTS assay in accordance with the manufacturer's protocol.^23

Data set [3] concerns L3.6pl cells. Kind of data set: Wound healing assay (cell migration). Type of data set: cell-based, human. Conditions: for anti-migration ability relative to parent 44a (in words): dosed at 0.6 μM. How it is done: A wound healing assay was employed to evaluate the anti-migration properties of compounds 44a-b, 46a-b, and 47a-b in L3.6p1 cells. This involved growing a monolayer of L3.6p1 cells and then scraping the monolayer with a sterile pipet tip to create a cell free zone in the middle of the well. The experiment was run in 96-well plate format. Wound healing was measured by time-course imaging of each well using a computer-controlled microscope with an x,y,z stage which allowed for reproducible imaging over time. Each drug was evaluated for its dose-dependent inhibition of cell migration. Each compound was evaluated at its own MTD in order to avoid cytotoxic effects which are well known to bias migration studies.^37a In addition, each compound was also tested at the MTD of 44a (Motu33) in order to directly compare the potency of these compounds at the same concentration.
Taking pictures of each wound needed to be done under a 2.5× objective in order to view ˜95% of each well. […] This problem was alleviated through the use of the ImageJ software.^47 This software allowed for enhancing the contrast between areas which were occupied by cells versus areas devoid of cells. In this regard, the software was able to accurately define the edges of each boundary. These capabilities then allowed for accurate area calculations which are seen in Table 3.
Anti-migratory properties were assayed in 96-well microtiter plates (Costar 3599, Corning, N.Y., USA). A stock suspension of L3.6p1 cells (5.5×10^5 cells/mL) was prepared. L3.6p1 cells (90 μL of stock/well) were plated and allowed to grow to a confluent monolayer (48 h). Each well was then scraped with a 1 μL sterile pipet tip, photographed with a Zeiss Stemi Microscope (2.5× objective) (time=0), and then allowed to incubate for an additional 48 h period (time=48 h). Over this 48 h period, the untreated control migrated to fill 50% of the original wound. At time zero, the respective drug solutions (10 μL) were added and cell migration monitored after 48 h incubation at 37° C. with 5% CO2. After drug exposure for 48 h, respective time=48 h photographs were taken by the Zeiss Stemi Microscope. These pictures (time=0 and time=48 h) were then compared and analyzed through the use of ImageJ software^47 by calculating the average area invaded by L3.6p1 cells.

In data set [4] the test system is L3.6pl cells. Kind of data set: Cytotoxicity IC50 and MTD determination in L3.6pl cells. Type of data set: cell-based. Conditions: for pIC50 / L3.6pl MTD: 48 h at 37° C.; for pIC50: 250 μM AG 24 h prior to drug addition; for MTD higher than 0.6 μM (MTD of 44a): relative to parent 44a; for L3.6pl MTD: maximum tolerated dose, 250 μM AG. How it is done:
The MTD (Maximum tolerated dose) was determined for each of these compounds (Table III-2).
Note: the media must contain L-proline (2 μg/mL) for proper growth of the CHO-MG* cells. […] Cells in early to mid-log phase growth were used.
CHO and CHO-MG* cells were plated at 10,000 cells/mL. L3.6p1 cells were plated at 5,000 cells/mL. Drug solutions (10 μL per well) of appropriate concentration were added after an overnight incubation for each CHO cell line (90 μL of cell suspension).

A further data set has as its system CHO cells. Kind of data set: Cytotoxicity (MTS cell growth) in CHO cells. Type of data set: cell-based, Chinese hamster. Conditions: 48 h at 37° C., 1 mM AG 24 h prior to drug addition, triplicate.
Source text: as §1, §2, §3

Another data set has as its system yeast cells. Conditions: 60 μM; cited from earlier work.
In another data set the test system is MDA-MB-231 cells. Conditions: cited from earlier work.
Data set [5] deals with original CHO-MG line and CHO. Conditions: reported earlier (ref 2f); cited from earlier work.
Data set [6] deals with MDA-231 breast carcinoma cells. Conditions: cited from earlier work.
The mark [7] stands for this setting: Homo sapiens, 0.6 μM, 48 h, 250 μM AG.
Setting [8] is: 2 μM (MTD of the conjugate), 48 h.

pIC50: −log10 of the molar value. “Also recorded” adds a separate entry of the source. A value given as a limit tells only on which side of the number the result lay.

Regarding `CCN(CCCNCCCN)Cc1c2ccccc2cc2ccccc12` [AntNEt33], the “anti-metastatic properties in vivo” value in data set [1] (compared with dihydromotuporamine C) is “failed to mimic the anti-metastatic properties”.

As for `NCCCNCCCNCC1CCCCCCCCCCCCCC1` [Compound 47a, N^1-(3-aminopropyl)-N^3-(cyclopentadecylmethyl)propane-1,3-diamine], the “tumor growth in vivo” value in data set [2] (mouse studies, preliminary) is given as “inhibit tumor growth in vivo”. In data set [2], the tumor volume size result is reported as “dramatic decreases in tumor volume size”. The pIC50 is 4.06 with CHO-MG* cells (Cricetulus griseus, CHO-MG); 4.05 in the data set with L3.6pl cells [4] (Homo sapiens, L3.6pl); 4.08 in the data set on CHO cells (Cricetulus griseus, CHO). In the data set on L3.6pl cells [3], the “anti-migration property (in words)” value is “have this anti-migration property”. Besides, the “% Cell Migration” value was 29.2 (±3.2) % with L3.6pl cells [3] (0.6 μM, 48 h, 250 μM AG) and 26.2 (±1.3) % in the data set with L3.6pl cells [3] (80 μM (MTD of the conjugate), 48 h). Besides, in the data set with L3.6pl cells [3] (Homo sapiens, L3.6pl, 80 μM (MTD of the conjugate), 48 h), at 80 µM the inhibition was 44.8%. Besides, the inhibition at 0.6 µM in the data set on L3.6pl cells [3] (setting [7]) turned out to be 38.4%. In addition, the “anti-migration ability relative to parent 44a (in words)” value in the data set with L3.6pl cells [3] was “highest inhibition; also recorded: dramatic increase in anti-migration ability; also recorded: significant improvement in anti-migration ability”. The “MTD higher than 0.6 μM (MTD of 44a)” value with L3.6pl cells [4] (L3.6pl) is reported as greater than 130 fold. Further, the “L3.6pl MTD” value in the data set with L3.6pl cells [4] came out at 80 µM. The “less toxic than the parent (44a)” value in the data set on L3.6pl cells [4] (relative to 44a) is listed as “about 130 times”.

Regarding `NCCCCNCCCCNCC1CCCCCCCCCCCCCC1` [Compound 47b, N^1-(4-aminobutyl)-N^4-(cyclopentadecylmethyl)butane-1,4-diamine], the pIC50 is 4.34 with CHO-MG* cells (Cricetulus griseus, CHO-MG); 4.31 in the data set with L3.6pl cells [4] (Homo sapiens, L3.6pl); 4.32 in the data set on CHO cells (Cricetulus griseus, CHO). Also, the “% Cell Migration” value in the data set with L3.6pl cells [3] (0.6 μM, 48 h, 250 μM AG) is on record as 33.4 (±1.8) %; in the data set on L3.6pl cells [3] (40 μM (MTD of the conjugate), 48 h), 25.9 (±2.1) %. In the data set with L3.6pl cells [3] (Homo sapiens, L3.6pl, 40 μM (MTD of the conjugate), 48 h), testing at 40 µM gave an inhibition of 45.3%. Besides, in the data set with L3.6pl cells [3] (setting [7]), the inhibition at 0.6 µM was 29.6%. The “anti-migration ability relative to parent 44a (in words)” value in the data set on L3.6pl cells [3] is “dramatic increase in anti-migration ability”. The “MTD higher than 0.6 μM (MTD of 44a)” value with L3.6pl cells [4] (L3.6pl) is recorded as greater than 60 fold. Besides, in the data set with L3.6pl cells [4], the “L3.6pl MTD” value amounted to 40 µM.

As to `NCCCCNCCCCNC1CCCCCCCCCCCCCC1` [Compound 46b, N^1-(4-Aminobutyl)-N^4-cyclopentadecylbutane-1,4-diamine], the pIC50 is 5.29 in the data set with CHO-MG* cells (Cricetulus griseus, CHO-MG); 5.55 with L3.6pl cells [4] (Homo sapiens, L3.6pl); 5.34 with CHO cells (Cricetulus griseus, CHO). For the same compound, the “anti-migration property (in words)” value in the data set on L3.6pl cells [3] is “have this anti-migration property”. Also, the “% Cell Migration” value with L3.6pl cells [3] (0.6 μM, 48 h, 250 μM AG) was 32.5 (±4.3) %; with L3.6pl cells [3] (setting [8]), 31.6 (±0.5) %. This compound had an inhibition at 2 µM in the data set with L3.6pl cells [3] (Homo sapiens, L3.6pl, 2 μM (MTD of the conjugate), 48 h) of 33.4%. Also, the inhibition at 0.6 µM in the data set on L3.6pl cells [3] (setting [7]) stood at 31.4%. Also, in the data set on L3.6pl cells [4], the “L3.6pl MTD” value turned out to be 2.0 µM.

For `NCCCNCCCN1CCCCCCCCCCCCCC1` [Compound 44a, dihydromotuporamine C, reference compound], in data set [2], the tumor volume size entry was “dramatic decreases in tumor volume size”. In addition, the “growth of yeast cells” value in the data set on yeast cells is “fully inhibit the growth”. In addition, the “anti-invasive properties (in words)” value in the data set with MDA-MB-231 cells is recorded as “good anti-invasive properties”. Besides, in [5], the “IC50 ratio in the original CHO-MG line and CHO” value is 1. Also, in data set [1] (dosed at MTD, control saline, FIG. 7), the “degree of metastasis (liver micrometastases per slide)” value is “effective in reducing the degree of metastasis”. Besides, the “cytotoxicity (in words)” value in [6] is “highly cytotoxic”. Further, the pIC50 in the data set on CHO-MG* cells (Cricetulus griseus, CHO-MG) was 5.53; in the data set with L3.6pl cells [4] (Homo sapiens, L3.6pl), 6.00; in the data set on CHO cells (Cricetulus griseus, CHO), 5.54. Further, the “CHO-MG*/CHO IC50 ratio” value in the data set on CHO-MG* cells (measure of PTS selectivity) amounted to 1. The “% Cell Migration” value in the data set with L3.6pl cells [3] (0.6 μM, 48 h, 250 μM AG) is 37.8 (±3.3) %. This compound had an inhibition at 0.6 µM in the data set with L3.6pl cells [3] (setting [7]) of 20.3%. Besides, the “L3.6pl MTD” value in the data set on L3.6pl cells [4] is 0.6 µM.

Regarding `NCCCNCCCNC1CCCCCCCCCCCCCC1` [Compound 46a, N(3-Aminopropyl)-N3-cyclopentadecylpropane-1,3-diamine], the pIC50 in the data set on CHO-MG* cells is 5.23; in the data set on L3.6pl cells [4], 5.55; in the data set on CHO cells it was 5.55. Also, the “anti-migration property (in words)” value in the data set on L3.6pl cells [3] is “have this anti-migration property”. Also, the “% Cell Migration” value with L3.6pl cells [3] (0.6 μM, 48 h, 250 μM AG) is reported as 38.2 (±2.5) %; with L3.6pl cells [3] (setting [8]), 31.8 (±0.1) %. Also, the “% Cell Migration Inhibition” value is 19.3 (±1.3) % in the data set with L3.6pl cells [3] (0.6 μM, 48 h, 250 μM AG) and 32.9 (±0.1) % with L3.6pl cells [3] (setting [8]). In addition, the “L3.6pl MTD” value in the data set with L3.6pl cells [4] worked out at 2.0 µM.

One may read the pIC50 as the IC50 on a negative log10 scale, so that one unit is a factor of ten. By inhibition is commonly meant the change of the read-out against control, counted positive when it falls. Higher therefore signals a strong effect.
